Calls of active or inactive are those of the source. Unless noted, the calls are words filed in the database; no cut-off is given here.
Assays:
[1] = reduced cellular PGC1a acetyl-lysine signal – cell-based, cherry-picked samples, dose response (AID 720514); type: functional;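 further: potency may reflect raised or lowered acetylation signal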
[2] = HPDE-C7 pancreatic duct cell viability loss – fluorescence, HTS (AID 430); type: functional, cell-based; conditions: Homo sapiens
Fatty acid synthase [3] = target: T1, Fatty acid synthase (Homo sapiens, UniProt P49327); assay: inhibition of human FAS-TE enzyme activity – biochemical, kinetic fluorescence intensity, dose response (AID 624326); type: functional;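 further: rate of fluorescence rise from hydrolysis of a fluorogenic O-methyl fluorescein ester substrate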
[4] = target: T2, Sphingosine 1-phosphate receptor 4 (Homo sapiens, UniProt O95977); assay: Fluorescence dose response cell-based high throughput screening assay for antagonists of the Sphingosine 1-Phosphate Receptor 4 (S1P4). [Related pubchem assays: 1524 (Confirmation in triplicates.), 1510 (Primary screen.)]; type: functional
T2 sequence (O95977 whole entry): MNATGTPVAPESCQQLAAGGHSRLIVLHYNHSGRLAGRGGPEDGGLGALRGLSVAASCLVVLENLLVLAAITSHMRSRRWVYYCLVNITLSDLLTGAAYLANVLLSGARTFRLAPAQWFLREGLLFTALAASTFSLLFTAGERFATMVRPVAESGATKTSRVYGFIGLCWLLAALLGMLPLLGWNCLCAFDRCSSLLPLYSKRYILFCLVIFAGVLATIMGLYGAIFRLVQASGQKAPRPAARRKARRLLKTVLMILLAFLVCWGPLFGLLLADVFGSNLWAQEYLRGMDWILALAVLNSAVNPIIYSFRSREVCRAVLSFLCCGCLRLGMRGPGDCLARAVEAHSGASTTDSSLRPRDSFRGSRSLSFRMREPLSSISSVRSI

[5] = target: T3, Heat shock factor protein 1 (Mus musculus, UniProt P38532); assay: enhancement of HSF1-driven luciferase signal – cell-based, NIH3T3, luminescence, dose retest, confirmation (AID 435004); type: functional;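 further: stress induced by proteasome inhibitor MG132 added 30 min after compound; luciferase reporter driven by HSF1 response element in NIH3T3 cells; actives raise luminescence as potentiators of the MG132 stress response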
T3 sequence (P38532 whole entry): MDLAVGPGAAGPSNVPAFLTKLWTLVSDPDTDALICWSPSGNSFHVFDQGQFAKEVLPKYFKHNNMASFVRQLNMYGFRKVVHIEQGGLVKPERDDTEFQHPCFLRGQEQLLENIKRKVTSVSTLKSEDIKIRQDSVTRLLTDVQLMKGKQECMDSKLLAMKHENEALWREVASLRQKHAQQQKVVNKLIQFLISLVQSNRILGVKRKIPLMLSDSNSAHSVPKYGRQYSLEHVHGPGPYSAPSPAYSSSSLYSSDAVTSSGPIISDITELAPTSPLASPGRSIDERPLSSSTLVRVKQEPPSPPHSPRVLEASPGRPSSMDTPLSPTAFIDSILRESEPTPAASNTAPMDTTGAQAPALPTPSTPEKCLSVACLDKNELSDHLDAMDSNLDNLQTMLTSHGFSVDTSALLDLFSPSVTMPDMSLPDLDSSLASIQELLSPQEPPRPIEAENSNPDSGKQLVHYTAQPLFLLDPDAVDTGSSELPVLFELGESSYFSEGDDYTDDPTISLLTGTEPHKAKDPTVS

[6] = viability loss of HPDE-C7K cells – cell-based, fluorescence, HTS, primary screen (AID 431); type: functional; conditions: Homo sapiens
[7] = cAMP pathway inhibition in counterscreen cell line – TR-FRET cAMP detection, counter-screen for MC4R biased antagonist project, dose response (AID 602305); type: functional, cell-based;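 further: U2OS cells stimulated with forskolin near its EC80 as the cAMP inducer; potency is for inhibition of forskolin-stimulated cAMP signaling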
[8] = target: T4, Sphingosine 1-phosphate receptor 1 (Homo sapiens, UniProt P21453); type: functional
Fatty acid synthase [9] = target: T1, Fatty acid synthase; assay: inhibition of human FAS-TE enzyme activity – biochemical, endpoint fluorescence intensity, uHTS hits, dose response (AID 624327); type: functional;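 further: fluorescence from hydrolysis of an O-methyl fluorescein acyl ester substrate by the enzyme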
Protein RecA = target: T5, Protein RecA (Mycobacterium tuberculosis, UniProt P9WHJ3); assay: Fluorescence Cell-Free Homogeneous Dose Retest to Identify Inhibitors of RecA-Intein Splicing Activity. [Related pubchem assays (depositor defined):AID2097, AID2223, AID489010, AID492950]; type: functional
T5 sequence (P9WHJ3 whole entry): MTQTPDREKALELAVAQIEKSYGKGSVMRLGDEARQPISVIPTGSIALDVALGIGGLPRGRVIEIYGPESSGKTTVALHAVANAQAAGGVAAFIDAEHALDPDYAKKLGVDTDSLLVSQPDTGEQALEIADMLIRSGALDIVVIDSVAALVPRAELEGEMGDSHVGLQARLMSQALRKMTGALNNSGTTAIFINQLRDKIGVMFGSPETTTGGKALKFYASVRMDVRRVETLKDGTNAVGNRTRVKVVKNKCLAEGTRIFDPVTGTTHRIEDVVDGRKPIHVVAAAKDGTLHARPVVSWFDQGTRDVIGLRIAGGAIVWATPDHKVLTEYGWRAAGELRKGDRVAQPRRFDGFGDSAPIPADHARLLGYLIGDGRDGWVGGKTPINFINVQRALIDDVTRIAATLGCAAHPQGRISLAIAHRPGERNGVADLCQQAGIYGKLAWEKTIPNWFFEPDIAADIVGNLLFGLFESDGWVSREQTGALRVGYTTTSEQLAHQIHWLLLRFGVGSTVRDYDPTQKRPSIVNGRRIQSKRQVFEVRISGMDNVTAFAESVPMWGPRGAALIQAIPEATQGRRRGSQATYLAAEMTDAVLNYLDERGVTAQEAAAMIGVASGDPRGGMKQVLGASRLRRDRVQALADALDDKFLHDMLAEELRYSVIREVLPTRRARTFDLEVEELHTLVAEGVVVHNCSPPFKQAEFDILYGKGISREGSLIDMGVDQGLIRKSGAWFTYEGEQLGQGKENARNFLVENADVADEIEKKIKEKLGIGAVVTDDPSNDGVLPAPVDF

[10] = target: T6, Replicative DNA helicase DnaB (Mycobacterium tuberculosis, UniProt P9WMR3); assay: DnaB intein splicing inhibitors, dose response, biochemical, cell-free fluorescence (AID 449749); type: functional
T6 sequence (P9WMR3 whole entry): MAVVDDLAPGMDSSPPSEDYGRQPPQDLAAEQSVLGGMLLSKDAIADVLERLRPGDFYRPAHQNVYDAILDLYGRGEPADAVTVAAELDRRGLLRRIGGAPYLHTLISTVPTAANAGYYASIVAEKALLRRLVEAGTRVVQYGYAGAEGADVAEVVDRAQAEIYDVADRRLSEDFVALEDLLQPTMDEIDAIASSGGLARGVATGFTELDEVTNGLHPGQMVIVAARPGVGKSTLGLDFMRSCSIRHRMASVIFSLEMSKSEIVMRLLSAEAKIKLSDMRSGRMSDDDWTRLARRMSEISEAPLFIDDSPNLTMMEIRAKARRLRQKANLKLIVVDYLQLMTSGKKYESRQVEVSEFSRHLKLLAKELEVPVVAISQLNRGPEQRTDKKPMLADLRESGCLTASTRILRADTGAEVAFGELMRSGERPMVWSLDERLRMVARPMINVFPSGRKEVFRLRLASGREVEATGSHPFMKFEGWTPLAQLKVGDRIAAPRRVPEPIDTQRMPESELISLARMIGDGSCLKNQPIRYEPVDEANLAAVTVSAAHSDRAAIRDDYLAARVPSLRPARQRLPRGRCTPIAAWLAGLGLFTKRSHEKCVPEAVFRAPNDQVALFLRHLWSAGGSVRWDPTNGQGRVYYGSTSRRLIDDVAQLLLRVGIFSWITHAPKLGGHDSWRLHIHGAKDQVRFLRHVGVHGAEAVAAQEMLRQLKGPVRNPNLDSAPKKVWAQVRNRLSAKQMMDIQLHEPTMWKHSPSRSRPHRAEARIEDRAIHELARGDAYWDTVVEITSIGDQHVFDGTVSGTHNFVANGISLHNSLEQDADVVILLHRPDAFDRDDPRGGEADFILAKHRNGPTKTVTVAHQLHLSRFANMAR

[11] = target: T2, Sphingosine 1-phosphate receptor 4; assay: Late stage fluorescence dose response cell-based screening assay for antagonists of the Sphingosine 1-Phosphate Receptor 4 (S1P4). [Related pubchem assays: 1524 (Confirmation screen (S1P4 antagonists).), 1510 (Primary screen (S1P4 antagonists).), 1853 (Summary AID (S1P4 antagonists).), 1692 (Dose response screen (S1P4 antagonists).)]; type: functional
Melanocortin receptor 4 = Melanocortin receptor 4 (Homo sapiens, UniProt P32245); assay: inhibitors of MC4R cAMP signaling – cell-based, TR-FRET, biased antagonists, dose response (AID 602298); type: functional;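 further: antagonist potency against agonist-stimulated cAMP production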
[12] = Luminescent dose response cell-based high throughput screening assay for inhibitors of the Janus kinase 2 mutant JAK2V617F. [Related pubchem assays: 1446 (Primary screen.), 1521 (Confirmation assay.), 1486 (Counter screen.)]; type: functional
[13] = target: T7, Sphingosine 1-phosphate receptor 2 (Homo sapiens, UniProt O95136); assay: activation of human S1P2 receptor – cell-based, fluorescence, set 2, counter-screen for S1P4 agonist project, late-stage follow-up (AID 504873); type: functional
[14] = target: T4, Sphingosine 1-phosphate receptor 1; assay: Late-stage fluorescence-based dose-response cell-based counterscreen assay to identify agonists of the Sphingosine 1-Phosphate Receptor 4 (S1P4): Sphingosine 1-Phosphate Receptor 1 (S1P1) agonist assay Set 2.; type: functional
[15] = target: T2, Sphingosine 1-phosphate receptor 4; assay: Late-stage fluorescence-based dose-response cell-based counterscreen assay to identify agonists of the Sphingosine 1-Phosphate Receptor 4 (S1P4): inhibition by S1P4-selective antagonist 33 nM.; type: functional
[16] = target: T2, Sphingosine 1-phosphate receptor 4; assay: Late-stage fluorescence dose-response cell-based counterscreen assay to identify agonists of the Sphingosine 1-Phosphate Receptor 4 (S1P4): Sphingosine 1-Phosphate Receptor 4 (S1P4) antagonist assay Set 2.; type: functional
[17] = target: T2, Sphingosine 1-phosphate receptor 4; assay: (§1) Late-stage fluorescence-based dose-response cell-based counterscreen assay to identify agonists of the Sphingosine 1-Phosphate Receptor 4 (S1P4): inhibition by S1P4-selective antagonist […].; type: functional
[18] = target: T2, Sphingosine 1-phosphate receptor 4; assay: Late-stage fluorescence-based dose-response cell-based counterscreen assay to identify agonists of the Sphingosine 1-Phosphate Receptor 4 (S1P4): inhibition by S1P4-selective antagonist 0.4 nM.; type: functional
[19] = target: T8, Sphingosine 1-phosphate receptor 3 (Homo sapiens, UniProt Q99500); assay: Late-stage fluorescence-based dose-response cell-based counterscreen assay to identify agonists of the Sphingosine 1-Phosphate Receptor 4 (S1P4): Sphingosine 1-Phosphate Receptor 3 (S1P3) agonist assay Set 2.; type: functional
[20] = target: Sphingosine 1-phosphate receptor 5 (Homo sapiens, UniProt Q9H228); assay: Late-stage fluorescence-based dose-response cell-based counterscreen assay to identify agonists of the Sphingosine 1-Phosphate Receptor 4 (S1P4): Sphingosine 1-Phosphate Receptor 5 (S1P5) antagonist assay Set 2.; type: functional
[21] = target: T8, Sphingosine 1-phosphate receptor 3; assay: Late-stage fluorescence-based dose-response cell-based counterscreen assay to identify agonists of the Sphingosine 1-Phosphate Receptor 4 (S1P4): Sphingosine 1-Phosphate Receptor 3 (S1P3) antagonist assay Set 2.; type: functional
[22] = target: T2, Sphingosine 1-phosphate receptor 4; assay: as §1; type: functional; remark: listed apart in the source
[23] = target: T2, Sphingosine 1-phosphate receptor 4; assay: Late-stage fluorescence-based dose-response cell-based counterscreen assay to identify agonists of the Sphingosine 1-Phosphate Receptor 4 (S1P4): inhibition by S1P4-selective antagonist 100 nM.; type: functional
[24] = target: T4, Sphingosine 1-phosphate receptor 1; assay: Late-stage fluorescence-based dose-response cell-based counterscreen assay to identify agonists of the Sphingosine 1-Phosphate Receptor 4 (S1P4): Sphingosine 1-Phosphate Receptor 1 (S1P1) antagonist assay.; type: functional
[25] = target: T7, Sphingosine 1-phosphate receptor 2; assay: Late-stage fluorescence-based dose-response cell-based counterscreen assay to identify agonists of the Sphingosine 1-Phosphate Receptor 4 (S1P4): Sphingosine 1-Phosphate Receptor 2 (S1P2) antagonist assay Set 2.; type: functional
[26] = target: T2, Sphingosine 1-phosphate receptor 4; assay: Late-stage fluorescence-based dose-response cell-based counterscreen assay to identify agonists of the Sphingosine 1-Phosphate Receptor 4 (S1P4): inhibition by S1P4-selective antagonist control.; type: functional
[27] = cell viability after agonist treatment – luminescence, dose response, set 2, assay provider, cytotoxicity control for S1P4 agonist project, late-stage follow-up (AID 504875); type: functional
[28] = target: T2, Sphingosine 1-phosphate receptor 4; assay: Late-stage fluorescence-based dose-response cell-based counterscreen assay to identify agonists of the Sphingosine 1-Phosphate Receptor 4 (S1P4): inhibition by S1P4-selective antagonist 11 nM.; type: functional

T4 sequence (P21453 whole entry): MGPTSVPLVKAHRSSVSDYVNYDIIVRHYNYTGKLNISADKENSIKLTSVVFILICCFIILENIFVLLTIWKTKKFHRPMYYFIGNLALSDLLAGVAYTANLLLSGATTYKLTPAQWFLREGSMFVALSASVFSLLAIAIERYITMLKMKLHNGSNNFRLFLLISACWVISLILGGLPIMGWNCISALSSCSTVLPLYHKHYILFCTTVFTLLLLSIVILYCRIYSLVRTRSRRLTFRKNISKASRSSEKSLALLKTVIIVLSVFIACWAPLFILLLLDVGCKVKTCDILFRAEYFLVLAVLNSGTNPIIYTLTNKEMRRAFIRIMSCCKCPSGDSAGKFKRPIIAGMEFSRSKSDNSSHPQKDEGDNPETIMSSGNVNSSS
T8 sequence (Q99500 whole entry): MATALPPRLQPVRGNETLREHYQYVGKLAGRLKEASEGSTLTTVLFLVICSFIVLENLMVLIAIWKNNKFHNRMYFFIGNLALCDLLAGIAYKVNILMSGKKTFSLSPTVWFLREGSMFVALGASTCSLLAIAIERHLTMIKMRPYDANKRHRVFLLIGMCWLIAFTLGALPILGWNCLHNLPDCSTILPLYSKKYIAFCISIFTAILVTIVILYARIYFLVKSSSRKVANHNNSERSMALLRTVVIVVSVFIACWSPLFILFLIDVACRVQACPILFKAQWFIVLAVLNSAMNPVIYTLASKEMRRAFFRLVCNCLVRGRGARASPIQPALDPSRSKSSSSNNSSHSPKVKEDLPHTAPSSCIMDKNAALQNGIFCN
T7 sequence (O95136 whole entry): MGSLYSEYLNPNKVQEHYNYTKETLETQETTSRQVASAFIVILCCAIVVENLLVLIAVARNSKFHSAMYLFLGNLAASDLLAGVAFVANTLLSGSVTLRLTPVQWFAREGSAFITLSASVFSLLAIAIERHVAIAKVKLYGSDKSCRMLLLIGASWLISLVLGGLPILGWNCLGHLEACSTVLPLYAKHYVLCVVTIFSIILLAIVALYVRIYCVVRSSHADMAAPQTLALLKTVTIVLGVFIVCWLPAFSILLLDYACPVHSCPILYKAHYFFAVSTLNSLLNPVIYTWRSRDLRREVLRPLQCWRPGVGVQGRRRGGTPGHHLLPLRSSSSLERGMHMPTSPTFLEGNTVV
T1 sequence (P49327 whole entry): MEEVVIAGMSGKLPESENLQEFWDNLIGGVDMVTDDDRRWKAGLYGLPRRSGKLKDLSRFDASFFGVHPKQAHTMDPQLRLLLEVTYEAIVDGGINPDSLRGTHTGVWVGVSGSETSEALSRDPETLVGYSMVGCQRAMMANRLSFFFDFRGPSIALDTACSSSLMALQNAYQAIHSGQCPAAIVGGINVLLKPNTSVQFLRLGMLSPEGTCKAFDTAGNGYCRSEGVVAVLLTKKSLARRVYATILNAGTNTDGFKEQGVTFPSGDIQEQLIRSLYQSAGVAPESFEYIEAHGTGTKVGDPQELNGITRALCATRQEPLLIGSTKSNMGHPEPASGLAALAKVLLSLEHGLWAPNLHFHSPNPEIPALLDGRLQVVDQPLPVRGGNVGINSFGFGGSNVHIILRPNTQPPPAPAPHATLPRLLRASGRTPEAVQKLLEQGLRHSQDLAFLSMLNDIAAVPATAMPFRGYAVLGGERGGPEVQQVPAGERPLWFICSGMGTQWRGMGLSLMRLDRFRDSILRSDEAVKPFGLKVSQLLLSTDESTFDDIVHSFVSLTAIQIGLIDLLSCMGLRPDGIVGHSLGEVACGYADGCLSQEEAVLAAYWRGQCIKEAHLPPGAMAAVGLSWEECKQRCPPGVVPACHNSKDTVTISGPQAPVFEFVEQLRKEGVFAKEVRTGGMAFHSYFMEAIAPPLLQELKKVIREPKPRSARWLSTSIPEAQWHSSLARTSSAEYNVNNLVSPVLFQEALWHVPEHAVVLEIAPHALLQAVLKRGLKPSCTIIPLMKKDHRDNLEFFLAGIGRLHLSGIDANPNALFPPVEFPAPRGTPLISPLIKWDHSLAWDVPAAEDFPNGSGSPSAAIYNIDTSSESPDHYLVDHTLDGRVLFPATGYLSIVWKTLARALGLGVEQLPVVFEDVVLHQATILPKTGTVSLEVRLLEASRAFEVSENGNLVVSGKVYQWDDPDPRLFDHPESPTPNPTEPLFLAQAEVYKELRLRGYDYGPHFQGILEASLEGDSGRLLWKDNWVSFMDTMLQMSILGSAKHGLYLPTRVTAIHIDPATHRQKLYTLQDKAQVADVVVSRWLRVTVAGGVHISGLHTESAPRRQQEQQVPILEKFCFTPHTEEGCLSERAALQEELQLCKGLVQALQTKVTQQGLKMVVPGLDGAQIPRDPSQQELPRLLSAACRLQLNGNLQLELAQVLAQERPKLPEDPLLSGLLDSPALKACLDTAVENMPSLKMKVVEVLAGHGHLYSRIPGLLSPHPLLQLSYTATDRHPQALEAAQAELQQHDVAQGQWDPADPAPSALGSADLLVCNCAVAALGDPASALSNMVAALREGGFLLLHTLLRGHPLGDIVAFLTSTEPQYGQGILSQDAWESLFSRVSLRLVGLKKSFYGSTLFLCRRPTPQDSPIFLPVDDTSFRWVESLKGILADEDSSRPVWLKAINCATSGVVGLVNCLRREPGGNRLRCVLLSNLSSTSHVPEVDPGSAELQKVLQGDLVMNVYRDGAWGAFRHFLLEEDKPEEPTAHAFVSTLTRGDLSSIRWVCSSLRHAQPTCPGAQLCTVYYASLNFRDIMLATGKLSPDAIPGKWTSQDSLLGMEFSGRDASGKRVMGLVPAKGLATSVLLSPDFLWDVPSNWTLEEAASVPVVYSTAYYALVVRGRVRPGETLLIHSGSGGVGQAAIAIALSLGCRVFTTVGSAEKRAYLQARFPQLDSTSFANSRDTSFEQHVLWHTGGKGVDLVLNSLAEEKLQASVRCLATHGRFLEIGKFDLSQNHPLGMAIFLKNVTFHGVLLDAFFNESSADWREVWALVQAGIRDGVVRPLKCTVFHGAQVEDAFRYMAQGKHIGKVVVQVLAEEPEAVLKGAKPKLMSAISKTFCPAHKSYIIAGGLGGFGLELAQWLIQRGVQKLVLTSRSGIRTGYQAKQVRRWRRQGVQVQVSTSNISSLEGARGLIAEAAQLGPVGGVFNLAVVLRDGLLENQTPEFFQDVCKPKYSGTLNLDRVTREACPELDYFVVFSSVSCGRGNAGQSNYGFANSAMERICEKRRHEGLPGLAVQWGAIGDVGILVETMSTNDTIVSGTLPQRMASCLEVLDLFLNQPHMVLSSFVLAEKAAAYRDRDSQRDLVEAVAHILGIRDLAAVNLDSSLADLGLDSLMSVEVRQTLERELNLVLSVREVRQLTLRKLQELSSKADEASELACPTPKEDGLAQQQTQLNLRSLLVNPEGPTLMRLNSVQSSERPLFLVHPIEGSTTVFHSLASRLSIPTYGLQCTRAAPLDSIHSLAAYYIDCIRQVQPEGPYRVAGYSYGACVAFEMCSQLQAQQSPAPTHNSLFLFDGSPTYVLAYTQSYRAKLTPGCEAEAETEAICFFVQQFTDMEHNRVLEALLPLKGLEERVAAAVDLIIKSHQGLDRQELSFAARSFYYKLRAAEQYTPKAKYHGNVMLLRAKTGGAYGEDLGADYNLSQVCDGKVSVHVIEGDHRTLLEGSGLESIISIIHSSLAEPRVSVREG
Sphingosine 1-phosphate receptor 5, sequence (Q9H228 whole entry): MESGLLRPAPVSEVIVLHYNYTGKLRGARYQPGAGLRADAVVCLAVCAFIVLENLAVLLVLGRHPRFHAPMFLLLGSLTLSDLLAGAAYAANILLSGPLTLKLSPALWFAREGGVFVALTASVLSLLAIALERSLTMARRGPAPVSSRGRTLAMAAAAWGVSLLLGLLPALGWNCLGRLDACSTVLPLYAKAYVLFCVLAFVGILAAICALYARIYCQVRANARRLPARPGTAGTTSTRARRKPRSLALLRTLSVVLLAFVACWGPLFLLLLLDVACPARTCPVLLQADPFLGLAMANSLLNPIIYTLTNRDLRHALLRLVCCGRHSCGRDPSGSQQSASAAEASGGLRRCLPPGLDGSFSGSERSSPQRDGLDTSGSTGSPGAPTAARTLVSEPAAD
Melanocortin receptor 4, sequence (P32245 whole entry): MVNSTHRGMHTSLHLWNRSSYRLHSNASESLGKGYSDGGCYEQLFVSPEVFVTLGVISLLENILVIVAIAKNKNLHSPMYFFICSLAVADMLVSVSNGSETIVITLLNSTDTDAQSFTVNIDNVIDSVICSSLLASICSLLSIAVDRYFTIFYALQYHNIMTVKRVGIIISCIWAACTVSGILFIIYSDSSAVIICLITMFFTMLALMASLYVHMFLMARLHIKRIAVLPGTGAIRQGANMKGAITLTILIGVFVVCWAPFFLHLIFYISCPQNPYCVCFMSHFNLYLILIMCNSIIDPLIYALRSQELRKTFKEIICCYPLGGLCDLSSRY

Cc1ccccc1CS(=O)(=O)c1nnc([C@H](CC(C)C)NC(=O)OC(C)(C)C)o1
AC50 [1]: 16 µM (active)
EC50 [2]: 8.56 µM (active)
IC50 (Fatty acid synthase [3]): 7.36 µM (active)
IC50 [4]: 1.2 µM (active)
EC50 [5]: > 260 µM (inactive)
EC50 [6]: 11.9 µM (active)
IC50 [7]: > 64.6 µM (inactive)
IC50 [8]: 38.9 µM (not active)
IC50 (Fatty acid synthase [9]): 12.3 µM (active)
EC50 (Protein RecA): 11.6 µM (active)
AC50 [10]: 93.7 µM (active)
IC50 [11]: 2.89 µM (not active)
IC50 (Melanocortin receptor 4): > 64.6 µM (inactive)
IC50 [12]: 0.632 µM (active)

COCC/N=C1\S/C(=C\c2cc(C)n(-c3ccc(F)cc3F)c2C)C(=O)N1C
EC50 [13]: > 25 µM (inactive)
EC50 [14]: > 25 µM (inactive)
EC50 [15]: > 3.3 µM (inactive)
IC50 [16]: > 25 µM (inactive)
EC50 [17]: 0.173 µM (active)
EC50 [18]: 0.04 µM (active)
EC50 [19]: > 25 µM (inactive)
IC50 [20]: > 25 µM (inactive)
IC50 [21]: ~8.9 µM (active)
EC50 [22]: > 3.3 µM (inactive)
EC50 [23]: > 3.3 µM (inactive)
IC50 [24]: > 25 µM (inactive)
IC50 [25]: 6.76 µM (active)
EC50 [26]: 0.0154 µM (active)
CC50 [27]: > 10 µM (inactive)
EC50 [28]: > 3.3 µM (inactive)
